According to patent US20160075765A1, “MODIFIED COLLAGEN MOLECULES” (AGENCY FOR SCIENCE, TECHNOLOGY AND RESEARCH, priority 2013, published 2016):

How the values were obtained:
[1] = Thermal unfolding (thermal denaturation) followed by circular dichroism at 225 nm; type: physicochemical; settings: CD, minimum of the derivative of fraction folded plot; 0.2 mM peptide, 10 mM sodium phosphate pH 7.0; not preheated; mixtures at ratio 1:2
Protocol: (§1) CD spectra were recorded on an Aviv 410 circular dichroism spectrometer equipped with temperature controller. Peptide solutions at concentrations of 200 μM were used. All sample solutions made in 10 mM sodium phosphate-dibasic buffer (pH 7.0) were equilibrated for 24 hr at 4° C. before CD measurements. A Quartz Cell of 1 mm path length was used. For wavelength scan, temperature was increased to the desired points at a rate of 10° C./hr and the sample solutions were equilibrated for 10 min before the measurements. Spectra were recorded from 260 to 190 nm and mean residue ellipticity [θ] was calculated as follows;
(§2) θ represents the ellipticity in millidegrees, N the number of amino acid residues, c the molar concentration in mol·L^−1, and l the cell path length in cm. Thermal denaturation curves were obtained at final peptide concentrations of 0.2 mM and molar ellipticity at 225 nm was measured as a function of temperature in a range of 5 to 80° C. at a heating rate of 10° C./hr. All annealed samples were heated for 30 min at 85° C. and then cooled down to 4° C. at a rate of 1° C./min followed by equilibration for 24 hr at 4° C. before the measurements. The melting temperatures were determined from the minimum points in the first derivative of the melting curves.

[2] = CD wavelength scan, helical conformation at a set temperature; type: physicochemical; settings: 200 μM peptide, pH 7.0
Protocol: as §1, §2

Tm (melting temperature of triple helix) [1] | conformation by CD at 25° C. [2] | Substance
No triple helix | random coil conformations | Ac-(PXG)2-(PKG)4-(PXG)2-C(O)NH2 [Peptide 2]
39.4 °C | retained the PPII helical structure | Ac-(PXG)2-(PRG)4-(PXG)2-C(O)NH2 [Peptide 3]
